Data from PubChem BioAssay (NCI).
“And” between values parts separate entries of the source, which are not always exact repeats. Equal values may be shown once.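 Cells were grown in 96-well plates and exposed to each compound for 48 hours at five concentrations; endpoints were interpolated linearly between bracketing concentrations, or set to the highest concentration if not reached. GI50: concentration for 50% inhibition of growth. TGI is the concentration that stops growth completely.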

What was measured:
Test in all cases: NCI tumour cell line growth inhibition, 48 h
COLO 205 colon = system: COLO 205 colon
HCC-2998 colon = system: HCC-2998 colon
HL-60(TB) leukemia = system: HL-60(TB) leukemia
HOP-62 NSCLC = system: HOP-62 NSCLC
LXFL 529 NSCLC = system: LXFL 529 NSCLC
M19-MEL melanoma = system: M19-MEL melanoma
NCI-H226 lung = system: NCI-H226 lung
NCI-H23 lung = system: NCI-H23 lung
SK-MEL-2 melanoma = system: SK-MEL-2 melanoma
SK-MEL-28 melanoma = system: SK-MEL-28 melanoma

SMILES	TGI (COLO 205 colon)	TGI (HCC-2998 colon)	TGI (HL-60(TB) leukemia)	TGI (HOP-62 NSCLC)	TGI (LXFL 529 NSCLC) [µM]	TGI (M19-MEL melanoma) [µM]	TGI (NCI-H226 lung)	TGI (NCI-H23 lung)	TGI (SK-MEL-2 melanoma)	TGI (SK-MEL-28 melanoma)	GI50 (COLO 205 colon)	GI50 (HCC-2998 colon)	GI50 (HL-60(TB) leukemia)	GI50 (HOP-62 NSCLC)	GI50 (NCI-H226 lung)	GI50 (NCI-H23 lung)	GI50 (SK-MEL-2 melanoma)	GI50 (SK-MEL-28 melanoma)
O=C(N/N=C(/c1nc2ccc(Cl)cc2[nH]c1=O)C(O)c1ccc(Cl)cc1Cl)c1ccncc1 (configuration not stated)	> 100 µM	> 100 µM	> 100 µM	> 100 µM	> 100	> 100	> 100 µM	> 100 µM	> 100 µM	> 100 µM								
Cn1cnc([N+](=O)[O-])c1Sc1ccccn1	> 100 µM	> 100 µM		> 100 µM	> 100	> 100	> 100 µM	> 100 µM	> 100 µM	> 100 µM								
CCC1C(C)c2c([nH]c3ccccc23)C2C(=O)N(c3ccccc3)C(=O)C21 (configuration not stated)	30.7 µM	28.9 µM	33.9 µM		96.2	29.6		41.8 µM		33.4 µM								
Cc1ccc(S(=O)(=O)N(/N=C(\N)Oc2ccc(Cl)cc2)C(=N)Oc2ccc(Cl)cc2)cc1	> 100 µM	> 100 µM	> 100 µM	> 100 µM	> 100	> 100	> 100 µM	> 100 µM	> 100 µM	> 100 µM								
O=C(CC(=O)N1N=C(c2ccccc2)C(N=Nc2ccc(C(=O)O)cc2)C1=O)Nc1ccc(F)cc1 (configuration not stated)	> 100 µM		42.9 µM		> 100	> 100	24 µM	90.2 µM	41.8 µM	> 100 µM								
O=C(c1cc(O)ccc1O)c1ccccc1C(Cl)(Cl)Cl	> 100 µM	> 100 µM	97.3 µM	> 100 µM	> 100	> 100	> 100 µM	> 100 µM	> 100 µM									
N#Cc1cccc(NC(=O)c2ccc(C(=O)O)c(C(=O)c3ccc(C(=O)O)c(C(=O)Nc4cccc(C#N)c4)c3)c2)c1	> 100 µM		> 100 µM	> 100 µM	> 100	> 100	> 100 µM	> 100 µM	> 100 µM									
CN(C)CCCNc1nn2c(=O)c3ccccc3nc2c2ccccc12	13 µM	26.9 µM	72.7 µM	21.5 µM			25.5 µM	24.7 µM	43.8 µM	29.3 µM	2.39 µM	11.6 µM	18.1 µM	8.26 µM	5.13 µM	5.89 µM	20.1 µM	15.8 µM
COc1ccc(-c2ccc3c(NC(=O)C4CC4)n[nH]c3n2)cc1	> 25 µM	> 25 µM	> 25 µM	> 22 µM			> 25 µM	> 25 µM	> 25 µM	> 25 µM	> 25 µM	> 25 µM	> 25 µM	7.64 µM	> 25 µM	> 25 µM	> 25 µM	> 25 µM
CCSc1oc(-c2ccccc2)nc1[P+](c1ccccc1)(c1ccccc1)c1ccccc1	0.42 µM	2.16 µM	0.469 µM	1.87 µM			1.86 µM	1.1 µM	0.866 µM	2.32 µM	0.186 µM	0.418 µM	0.149 µM	0.308 µM	0.286 µM	0.277 µM	0.276 µM	0.467 µM
CCOC(=O)C1N(S(=O)(=O)c2ccc(C)cc2)CCC12c1ccccc1N(C(C)=O)C2C(/C=C/C(=O)OC)=C/C(=O)OC (configuration not stated)	> 100 µM	> 100 µM	> 100 µM	> 100 µM	> 100	> 100	> 100 µM	> 100 µM		> 100 µM								
S=c1nc(-c2nc(=S)[nH]c3c2CCCCCCCCCC3)c2c([nH]1)CCCCCCCCCC2	> 100 µM	> 100 µM	> 100 µM	> 100 µM			> 100 µM	> 100 µM	> 100 µM	> 100 µM								
Cn1nc(C(F)(F)F)c(-c2ccc(Cl)c(C(F)(F)F)c2)c1-c1ccc(OCc2ccc(Cl)cc2)cc1O	4.45 µM	6.73 µM	3.5 µM	6.04 µM			6.84 µM	4.83 µM	4.52 µM	7.33 µM	1.41 µM	1.88 µM	1.4 µM	1.58 µM	1.73 µM	1.41 µM	1.41 µM	1.88 µM
Cc1cc(C)cc(-n2c3nc(=O)n(C)c(=O)c-3nc3ccccc32)c1	24.8 µM	49.9 µM		> 100 µM	> 100	18.5	> 100 µM	39 µM	63.5 µM									
C[Si](C)(C)/C=C/CCC(C=O)(CCCl)c1ccccc1 (configuration not stated)	85.4 µM	> 100 µM	> 100 µM		> 100	> 100		> 100 µM	29.7 µM	> 100 µM								
CC[C@@]1(O)C(=O)NCc2c1cc1n(c2=O)Cc2cc3ccccc3nc2-1	> 100 µM	> 100 µM	> 24 µM	4.31 µM			> 100 µM	5.86 µM	> 100 µM	> 100 µM	39.2 µM	74 µM	1.33 µM	0.42 µM	> 100 µM	1.8 µM	> 100 µM	> 53.7 µM
COc1ccc(-c2ccc(/C=C/C(=O)NO)cc2)cc1	10.1 µM	7.92 µM		3.11 µM			4.39 µM	6.18 µM	37.6 µM	13 µM	2.34 µM	0.662 µM	0.269 µM	1.31 µM	1.09 µM	1.53 µM	5.11 µM	2.45 µM
CCN1CCN(c2nc(NNC(=O)Cc3ccccc3)nc(N3CCN(C(c4ccccc4)c4ccccc4)CC3)n2)CC1	3.82 µM	3.39 µM	4.04 µM	5.08 µM			42.7 µM	18.8 µM	4.5 µM	2.98 µM	1.88 µM	1.71 µM	1.89 µM	2.06 µM	16.9 µM	5.51 µM	2.1 µM	1.6 µM

SMILES	TGI (COLO 205 colon)	TGI (HCC-2998 colon)	TGI (HL-60(TB) leukemia)	TGI (HOP-62 NSCLC)	TGI (LXFL 529 NSCLC) [µM]	TGI (M19-MEL melanoma) [µM]	TGI (NCI-H226 lung)	TGI (NCI-H23 lung)	TGI (SK-MEL-2 melanoma)	TGI (SK-MEL-28 melanoma)	GI50 (COLO 205 colon)	GI50 (HCC-2998 colon)	GI50 (HL-60(TB) leukemia)	GI50 (HOP-62 NSCLC)	GI50 (NCI-H226 lung)	GI50 (NCI-H23 lung)	GI50 (SK-MEL-2 melanoma)	GI50 (SK-MEL-28 melanoma)
Cc1ccc2c(c1)C(=O)c1c-2n(CCCN)c(=O)c2cc([N+](=O)[O-])ccc12	0.913 µM	1.17 µM	0.327 µM	0.428 µM			1.33 µM	1.16 µM	4.15 µM	4.63 µM	0.178 µM	0.531 µM	0.0285 µM	0.0389 µM	0.54 µM	0.356 µM	1.37 µM	2.27 µM
c1ccc2c(CNCCCCCCNCc3cccc4ccccc34)cccc2c1	3.12 µM		3.45 µM	30.6 µM	3.39	14.3	31.6 µM	30.1 µM	3.02 µM	3.29 µM								
C/C(=C\c1ccc(Cl)cc1)C(C)(C)C(=O)O	> 100 µM	> 100 µM	> 100 µM	> 100 µM			> 100 µM	> 100 µM	> 100 µM	> 100 µM								
Cc1c[nH]c2c1C13CC1CN(C(=O)c1cc4cc(NC(=O)c5cc6ccccc6o5)ccc4[nH]1)C3=CC2=O (configuration not stated)		< 0.001 µM				< 0.001	< 0.001 µM	< 0.001 µM	< 0.001 µM			> 1.17 ng/mL	> 1.17 ng/mL			> 1.17 ng/mL	> 1.17 ng/mL	
COc1ccc2c(c1)CCC1C2CC[C@@]2(C)C1CC[C@@]2(O)CNC(=O)/C=C/c1ccc(O)c(OC)c1 (some centres not stated)	35.3 µM	33.7 µM	> 100 µM	> 100 µM			74.6 µM	> 100 µM	> 100 µM	84.4 µM	14 µM	17.7 µM	8.46 µM	31.8 µM	22.5 µM	25.5 µM	38.8 µM	15.2 µM
CC#C[C@@]1(O)CCCC[C@@H]1O	> 100 µM	> 100 µM	> 100 µM	> 100 µM		> 100	> 100 µM	> 100 µM	> 100 µM	> 100 µM								
CC(CN=C(CC(=O)c1ccc(Br)cc1)c1ccccc1)N=C(CC(=O)c1ccc(Br)cc1)c1ccccc1 (configuration not stated)	> 100 µM	> 100 µM	68 µM	> 100 µM			> 100 µM	> 100 µM	> 100 µM	> 100 µM	7.58 µM	99.1 µM	17.2 µM	> 100 µM	67.3 µM	8.9 µM	3.48 µM	> 100 µM
CC(=O)Oc1ccc(OC(C)=O)c2ccccc12	28.2 µM	31.7 µM	7.87 µM	25.3 µM			31.3 µM	27.5 µM	27 µM	26.5 µM	15 µM	17.5 µM	2.72 µM	12.6 µM	14.4 µM	12.7 µM	12.8 µM	13.3 µM
Cc1cc(NS(=O)(=O)c2ccc(Nc3c4ccccc4nc4c(C(=O)Nc5ccc(S(=O)(=O)N=C(N)N)cc5)cccc34)cc2)no1	> 100 µM	> 100 µM		> 100 µM	> 100	> 100		> 100 µM	> 100 µM	> 100 µM								
O=C(c1ccccc1Nc1ccnc(C(F)(F)F)c1)N1CCN(c2cccc(Cl)c2)CC1	30.1 µM	> 72.9 µM	59 µM	> 100 µM			49.2 µM	> 100 µM	50.3 µM	> 100 µM	15.1 µM	24.6 µM	16.2 µM	28.2 µM	15 µM	17.6 µM	21.1 µM	26.5 µM
CC(=O)OCC1OC(OC2C(COC(C)=O)OC(OCCC[S-])C(OC(C)=O)C2OC(C)=O)C(OC(C)=O)C(OC(C)=O)C1OC(C)=O.[Au+].c1ccc(CN2[CH-]N(Cc3ccccc3)C(c3ccccc3)=C2c2ccccc2)cc1 (configuration not stated)	7.61 µM	15.4 µM	6.43 µM	18.2 µM			33 µM	14 µM	8.92 µM	18.5 µM	2.68 µM	3.49 µM	2.49 µM	3.75 µM	4.68 µM	3.23 µM	2.99 µM	3.53 µM
Nc1nc2c(ncn2C2OC(CO)C(O)C2N)c(=O)[nH]1 (configuration not stated)	> 100 µM	> 100 µM	> 100 µM	> 100 µM	> 100	> 100		> 100 µM	> 100 µM	> 100 µM								
CCCS(=O)(=O)Nc1ccc(F)c(C(=O)c2c[nH]c3ncc(-c4ccc(Cl)cc4)cc23)c1F	11.2 µM and > 5.32 µM	17.9 µM and > 10 µM	12.2 µM and > 10 µM	21.6 µM and > 10 µM			36.7 µM and > 10 µM	26.6 µM and > 10 µM	14.7 µM and > 10 µM	2.98 µM and 0.696 µM	0.0487 µM and 0.0423 µM	5.59 µM and 10 µM	3.64 µM and > 10 µM	7.39 µM and > 8.12 µM	9.23 µM and > 5.91 µM	7.82 µM and > 10 µM	4.11 µM and 3.65 µM	0.0369 µM and 0.0422 µM
COc1ccc(OC)c(-c2nc3sccn3c2/C=C2/C(=O)Nc3ccc(Cl)cc32)c1	39.5 µM	33.9 µM	76 µM	60.5 µM			67.3 µM	51.4 µM	35.2 µM	39.8 µM	18.5 µM	18.4 µM	31.2 µM	25 µM	20.8 µM	21.4 µM	17.5 µM	20.6 µM
C(=N\Nc1nnc2c(n1)[nH]c1ccccc12)/c1cccnc1	> 100 µM	> 100 µM	> 100 µM	> 100 µM			> 100 µM	> 100 µM	> 100 µM	> 100 µM								
COc1ccc(C(=O)c2cc(OC)c(OC)c(OC)c2)cc1OC(C)=O	10.1 µM	> 100 µM	< 0.0228 µM	> 100 µM			> 100 µM	> 100 µM	> 100 µM	> 100 µM	0.786 µM	0.04 µM	< 0.0141 µM	0.0618 µM	8.71 µM	0.0662 µM	0.0848 µM	11.2 µM
CC1=NNC(=NCCN(C)C)C/C1=C/c1ccccc1Cl	> 100 µM	> 100 µM		> 100 µM	> 100	> 100		> 100 µM	> 100 µM	> 100 µM								
